Data taken from patent US20230293614A1, “COMPOSITIONS AND METHODS OF TREATING UPS-ASSOCIATED DISEASES” (Board of Supervisors of Louisiana State University and …, priority 2020, published 2023).

Key:
DUB = assay: Experiment 2: DUB reporter Z-LRGG-AMC with control, 5011, IU1 and KOE lysates; assay type: biochemical; settings: lysate 4 mg/mL
Experimental: Peptide used was the commercial DUB reporter [Z-LRGG-AMC (SEQ ID NO: 1)] at multiple concentration [50-150 um]. 640 μL protein at 10 mg/mL for each set was given. Final protein concentration in micro-wells was 4 mg/mL. Peptide was incubated with control, 5011 treated, 25 uM IU1, 50 uM IU1 and KOE in DUB assay buffer. Fluorometric readings were taken at different time points in plate reader. Measured at [Em 460/Ex 355]. Fluorescent signals were converted to μM/min using a calibration curve for the AMC fluorophore. Rates were plotted vs. substrate concentration (Z-LRGG-AMC peptide (SEQ ID NO: 1)) (FIG. 7).

[1] = system: deubiquitinating enzymes (DUBs); assay: DUB activity (Z-LRGG-AMC cleavage) in lysates of treated OPM2 cells; assay type: cell-based; settings: for Vmax / effect on DUB activity vs DMSO control / Km / n (Hill coefficient): 16 h; for effect of increasing concentration on DUB activity (normalized Vmax): 1, 10, 30 μg/mL, regression fit
Experimental: (§1) OPM2 cells were maintained in RPMI 1640 media supplemented with 12% FBS, 21.8 mM glucose, 8.6 mM HEPES (pH 7.4) and 1.0 mM sodium pyruvate. MM.1S cell line were maintained in RPMI 1640 media supplemented with 10% FBS. The cells were all cultured in T175 flasks (VWR, Radnor, Pa.). All media components were from Corning, Atlanta, Ga. unless otherwise noted. To test the effect of the ethanolic extract and bioactive compounds on DUB activity, cells were exposed to a 16-h pretreatment with 10 μg/mL of PMI-5011 and 1, 10, 30 μg/mL concentrations of DMC-1, DMC-2, KOE, and davidigenin before lysing the cells for experimentation. All compounds were reconstituted in DMSO to obtain stock concentrations, which was further diluted in culture media to obtain the desired experimental concentrations. For vehicle control, a subpopulation of cells was treated with pure DMSO diluted in a similar manner for the same duration. Upon treatment, cell lysates (both OPM2 and MM.1S) were generated by harvesting 1×10^6 cells/mL, followed by washing 2× and pelleting in phosphate buffered saline (PBS; 137 mM NaCl, 10 mM Na2HPO4, […], and 1.75 mM KH2PO4 at pH 7.4). The cell pellet was re-suspended in an approximately equivalent volume of M-PER to the volume of the cell pellet (1000-2000 μL) then vortexed for 10 min at room temperature. Following this, the mixture was centrifuged at 14,000×g for 15 min at 4° C. and the supernatant transferred to a centrifuge tube and stored on ice until use. Total protein concentration was determined using a NanoDrop 2000c (Thermo Scientific, Madison, Wis.).
(§2) The commercial DUB reporter, Z-LRGG-AMC (substrate) (SEQ ID NO: 1) was reconstituted in DMSO to obtain a final stock concentration of 1.44 mM. This stock reporter was diluted as needed in assay buffer (50 mM HEPES, pH 7.4, 150 mM NaCl, 2 mM DTT, and 0.02% Tween-20) supplemented with 4 mg/mL cell lysates (source of DUBs) to reach the desired reporter concentration with a final volume of 100 μL in a 96-well plate. OPM2 and MM.1S cell lysates from different treatments (10 μg/mL of PMI-5011; 1, 10, and 30 μg/mL of DMC-1, DMC-2, KOE, davidigenin and control vehicle DMSO) and C2C12 cell lysates were used to interrogate the effect of the ethanolic extract and selected bioactive compounds on DUB activity. Reporter only and lysates only (noise/background) samples were included in the 96-well plate to confirm that the rates observed were due to DUB-mediated hydrolysis initiated by the cell lysates. The 96-well plate was maintained at a temperature of 30° C. in the dark for the duration of the experiment. The fluorescence signals emitted as a result of DUB-mediated cleavage of AMC (λex=355 nm and λem=460 nm) were quantified using a Wallac 1420 VICTOR2 multilabel HTS counter fluorometry (Perkin Elmer (Waltham, Mass.). Readings were collected every 30 min for 6 h. The normalized signals were obtained by comparing the treatment with noise and background fluorescence values which were then statistically analyzed for their significance. Each data point represents triplicate data points from duplicate experiments. A calibration curve was generated for known concentrations of AMC to correlate the fluorescence signal (AU) to concentration (μM). The approximate concentration of free fluorophore was used to calculate reaction rates (μM/min) for each substrate concentration using linear regression analysis.
(§3) All data visualization, interpretation and curve-fittings were performed using Origin Pro (OriginLab, Northampton, MA) while statistical analyses of experimental data were carried out using SAS 9.4 (SAS Solutions). The analyses of enzyme-substrate reactions in all cell lysates started with scatter plotting the fluorometry signals (p,M) measured for each substrate concentration against time (min). Fluorescence signals measured for each substrate concentration remained stable during the first 30 min, indicating there was a 30-minute lag period before reaction initiation. […]

[2] = MTT cellular viability assay, MM.1S; assay type: cell-based; settings: human, MM.1S cells, read-out: percentage of viable cells
Experimental: (§4) The effect of PMI-5011 and bioactive compounds on the viability of cells was tested using a standard colorimetric MTT assay. The MTT Cell Proliferation Assay Kit was purchased from VWR, Radnor, Pa. MM.1S and OPM2 cells were treated with 10 μg/mL of PMI-5011 and 1, 10, and 30 μg/mL of DMC-1, DMC-2, KOE and davidigenin and plated at a density of 10^6 cells/mL in a 96-well plate with each well containing 250 μL of the sample. The plated cells were then incubated at 37° C. for 16 h. 10 μg/mL for PMI-5011 and a 16-h treatment period was used in this study based on previous findings by Yu et al.^24 Parallel plates were prepared for positive and negative solvent vehicle control with the same volume of DMSO and ethanol as for the treated cells. On the day of the experiment, the 96-well plates were centrifuged at 1000×g at 4° C. for 5 min in a microplate compatible centrifuge. The media was discarded and 50 μL of serum-free media and 50 μL of the MTT reagent were added into each well. For a background control, 50 μL of the MTT reagent was added into a well containing media only (no cells). The plate was incubated at 37° C. for 3 h in the dark. After incubation, 150 μL of the MTT solvent was added into each well. The plate was wrapped in a foil and placed on an orbital shaker for 15 min. Finally, the absorbance was measured at λex=544 nm and λem=590 nm using a Wallac 1420 VICTOR2 multilabel HTS counter fluorometry (Perkin Elmer (Waltham, Mass.). The percentage viable cells was obtained by Eq. 1.
(§5) % Viable Cells=S-N/C-N×100 (Eq. 1)
(§6) Where, S denotes raw absorbance values from samples, N denotes average absorbance value of the background control and C denotes the highest average absorbance value of positive vehicle control. The obtained percentage cytotoxicity values were then statistically analyzed for their significance. Each data point represents triplicate data points from duplicate experiments. The effect of PMI-5011 and the selected bioactive compounds on C2C12 cell viability has previously been reported.^24

[3] = system: deubiquitinating enzymes (DUBs); assay: DUB activity (Z-LRGG-AMC cleavage) in lysates of treated MM.1S cells; assay type: cell-based; settings: for Vmax / effect on DUB activity vs DMSO control / Km / n (Hill coefficient): 16 h; for effect of increasing concentration on DUB activity (normalized Vmax): 1, 10, 30 μg/mL, regression fit
Experimental: as §1, §2, §3

[4] = MTT cellular viability assay, OPM2; assay type: cell-based; settings: human, OPM2 cells, read-out: percentage of viable cells
Experimental: as §4, §5, §6

[5] = Table 2, OPM-2, 1 μg/mL, in µM/min
[6] = Table 2, OPM-2, 10 μg/mL, in µM/min
[7] = Table 2, OPM-2, 30 μg/mL, in µM/min

Compound: Cc1cc(C(=O)CN2CCCC2)c(C)n1-c1ccc(F)cc1 [IU1]
- effect on DUB activity vs control (DUB; 25 μM): inhibit
- effect on DUB activity vs control (DUB; 50 μM): inhibit

Compound: O=C(CCc1ccc(O)cc1)c1ccc(O)cc1O [DVG, 1-(2,4-dihydroxyphenyl)-3-(4-hydroxyphenyl)propan-1-one]
- effect on DUB activity (summary) ([1]; OPM2): enhance
- Vmax ([1]; OPM2, 1 μg/mL): 23.32 ± 1.58 µM/min
- effect on DUB activity vs DMSO control ([1]; OPM2, 1 μg/mL): significantly enhanced
- Vmax ([1]; OPM2, 10 μg/mL): 24.76 ± 1.84 µM/min
- effect on DUB activity vs DMSO control ([1]; OPM2, 10 μg/mL): significantly enhanced
- Vmax ([1]; OPM2, 30 μg/mL): 315.24 ± 41.65 µM/min
- effect on DUB activity vs DMSO control ([1]; OPM2, 30 μg/mL): significantly enhanced
- effect of increasing concentration on DUB activity (normalized Vmax) ([1]; OPM2): exponential increase
- Km ([1]; Table 2, OPM-2, 1 μg/mL): 56.4 µM
- n (Hill coefficient) ([1]; Table 2, OPM-2, 1 μg/mL): 0.82
- Vmax [1, 5]: 23.32
- Km ([1]; Table 2, OPM-2, 10 μg/mL): 45.5 µM
- n (Hill coefficient) ([1]; Table 2, OPM-2, 10 μg/mL): 1.78
- Vmax [1, 6]: 24.76
- Km ([1]; Table 2, OPM-2, 30 μg/mL): 89.4 µM
- n (Hill coefficient) ([1]; Table 2, OPM-2, 30 μg/mL): 1.34
- Vmax [1, 7]: 315.24
- viability at 16 h, 1 μg/mL [2]: ~105%
- viability at 16 h, 30 μg/mL [2]: ~80%
- effect on DUB activity (summary) [3]: inhibit
- Vmax ([3]; 1 μg/mL): 12.72 ± 0.78 µM/min
- effect on DUB activity vs DMSO control ([3]; 1 μg/mL): significantly enhanced
- Vmax ([3]; 10 μg/mL): 12.23 ± 1.30 µM/min
- effect on DUB activity vs DMSO control ([3]; 10 μg/mL): significantly enhanced
- Vmax ([3]; 30 μg/mL): 6.48 ± 0.54 µM/min
- effect on DUB activity vs DMSO control ([3]; 30 μg/mL): significantly inhibited
- effect of increasing concentration on DUB activity (normalized Vmax) [3]: negative linear effect
- Km ([3]; Table 2, 1 μg/mL): 30.2 µM
- Vmax ([3]; Table 2, 1 μg/mL): 0.0127 µM/min
- n (Hill coefficient) ([3]; Table 2, 1 μg/mL): 2.01
- Km ([3]; Table 2, 10 μg/mL): 39.2 µM
- Vmax ([3]; Table 2, 10 μg/mL): 0.0122 µM/min
- n (Hill coefficient) ([3]; Table 2, 10 μg/mL): 1.92
- Km ([3]; Table 2, 30 μg/mL): 38.4 µM
- Vmax ([3]; Table 2, 30 μg/mL): 0.00648 µM/min
- n (Hill coefficient) ([3]; Table 2, 30 μg/mL): 1.51
- viability at 16 h, 1 μg/mL [4]: ~90%
- viability at 16 h, 30 μg/mL [4]: ~60%

Compound: COc1ccc(C(=O)CCc2ccc(O)cc2)c(O)c1 [DMC-1, 1-(2-hydroxy-4-methoxyphenyl)-3-(4-hydroxyphenyl)propan-1-one]
- Vmax ([1]; OPM2, 1 μg/mL): 33.06 ± 5.08 µM/min
- effect on DUB activity vs DMSO control ([1]; OPM2, 1 μg/mL): significantly inhibiting
- Vmax ([1]; OPM2, 10 μg/mL): 27.93 ± 4.80 µM/min
- effect on DUB activity vs DMSO control ([1]; OPM2, 10 μg/mL): significantly inhibiting
- Vmax ([1]; OPM2, 30 μg/mL): 233.44 ± 27.31 µM/min
- effect on DUB activity vs DMSO control ([1]; OPM2, 30 μg/mL): significantly enhanced
- effect of increasing concentration on DUB activity (normalized Vmax) ([1]; OPM2): exponential increase
- Km ([1]; Table 2, OPM-2, 1 μg/mL): 61.4 µM
- n (Hill coefficient) ([1]; Table 2, OPM-2, 1 μg/mL): 1.29
- Vmax [1, 5]: 33.06±
- Km ([1]; Table 2, OPM-2, 10 μg/mL): 46.3 µM
- n (Hill coefficient) ([1]; Table 2, OPM-2, 10 μg/mL): 1.40
- Vmax [1, 6]: 27.93
- Km ([1]; Table 2, OPM-2, 30 μg/mL): 140 µM
- n (Hill coefficient) ([1]; Table 2, OPM-2, 30 μg/mL): 0.93
- Vmax [1, 7]: 233.44
- viability at 16 h, 1 μg/mL [2]: ~95%
- viability at 16 h, 30 μg/mL [2]: ~55%
- Vmax ([3]; 1 μg/mL): 7.03 ± 1.10 µM/min
- effect on DUB activity vs DMSO control ([3]; 1 μg/mL): significantly inhibiting
- Vmax ([3]; 10 μg/mL): 9.19 ± 0.78 µM/min
- effect on DUB activity vs DMSO control ([3]; 10 μg/mL): significantly inhibiting
- Vmax ([3]; 30 μg/mL): 12.91 ± 1.45 µM/min
- effect on DUB activity vs DMSO control ([3]; 30 μg/mL): significantly enhanced
- effect of increasing concentration on DUB activity (normalized Vmax) [3]: positive linear effect
- Km ([3]; Table 2, 1 μg/mL): 21 µM
- Vmax ([3]; Table 2, 1 μg/mL): 0.00703 µM/min
- n (Hill coefficient) ([3]; Table 2, 1 μg/mL): 1.33
- Km ([3]; Table 2, 10 μg/mL): 26 µM
- Vmax ([3]; Table 2, 10 μg/mL): 0.00919 µM/min
- n (Hill coefficient) ([3]; Table 2, 10 μg/mL): 1.64
- Km ([3]; Table 2, 30 μg/mL): 29.3 µM
- Vmax ([3]; Table 2, 30 μg/mL): 0.0129 µM/min
- n (Hill coefficient) ([3]; Table 2, 30 μg/mL): 1.07
- viability at 16 h, 1 μg/mL [4]: ~100%
- viability at 16 h, 30 μg/mL [4]: ~60%
